According to patent publication US6022893A, “Hydroxamic acid derivatives” (ONO Pharmaceutical Co., Ltd., priority 1995, dated 2000):

Experiments:
[1] = molecular target: T1, gelatinase A (Homo sapiens, UniProt P08253); assay: Inhibitory activity against gelatinase A (synthetic substrate MOCAc-Pro-Leu-Gly-Leu-A2 pr(Dnp)-Ala-Arg-NH2); assay type: biochemical; conditions: final 13.5 μM, incubated 20 minutes at 37° C., activated gelatinase A
T1 construct: endogenous in cells; host or cells: human normal skin dermal fibroblasts (HNDF); progelatinase A purified from them
T1 sequence (P08253 110-660): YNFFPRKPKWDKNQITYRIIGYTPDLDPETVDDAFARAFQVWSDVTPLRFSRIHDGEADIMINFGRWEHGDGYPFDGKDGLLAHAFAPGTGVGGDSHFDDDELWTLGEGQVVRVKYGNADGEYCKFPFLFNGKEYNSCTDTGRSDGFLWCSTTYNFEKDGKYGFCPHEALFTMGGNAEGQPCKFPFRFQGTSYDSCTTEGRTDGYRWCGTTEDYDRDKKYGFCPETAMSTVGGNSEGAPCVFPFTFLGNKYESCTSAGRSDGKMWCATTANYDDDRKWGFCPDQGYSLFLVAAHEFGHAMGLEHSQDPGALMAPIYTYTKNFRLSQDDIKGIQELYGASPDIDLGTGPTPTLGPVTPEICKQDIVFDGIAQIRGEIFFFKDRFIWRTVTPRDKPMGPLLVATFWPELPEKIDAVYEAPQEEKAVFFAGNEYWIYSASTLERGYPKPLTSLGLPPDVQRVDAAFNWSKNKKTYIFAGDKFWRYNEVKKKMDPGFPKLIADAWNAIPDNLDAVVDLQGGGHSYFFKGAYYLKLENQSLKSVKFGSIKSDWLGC
Experimental: (§1) The potency of inhibitory activity against each matrix metalloproteinase is confirmed as below. The IC50 value for inhibition of gelatinase A activity is determined as follows.
(§2) (1) Inhibitory activity against gelatinase A
(§3) Progelatinase A (7 μl; in assay buffer (90 μl )) was purified from human normal skin dermal fibroblasts (HNDF). It was activated by the addition of 10 mM of p-aminophenylmercuric acetate (APMA) (10 μl) for 1 hour at 37° C.
Alternatively the inhibitory activity of the test compound was measured by using the synthetic substrate (MOCAc-Pro-Leu-Gly-Leu-A2 pr(Dnp)-Ala-Arg-NH2). The substrate solution (890 μl; the final concentration was 13.5 μM) was mixed with various concentrations of the test compound or dimethylsulfoxide ([…]) for 5 minutes at 37° C. The activated gelatinase A (7 μl/tube, 100 μl) was added to the reaction mixture and further incubated for 20 minutes at 37° C. 0.1 M sodium acetate buffer (2 ml; pH4.0) was added into the mixture. The IC50 was determined by measuring the fluorescent intensity (Ex=328 nm, and Em=393 nm) in this solution. The results are shown in Table 24 (Example number 2(4) and 3(2)).

[2] = molecular target: T1, gelatinase A; assay: Inhibitory activity against gelatinase A (FITC-labeled gelatin substrate); assay type: biochemical; conditions: incubated 2 hours at 37° C., APMA-activated progelatinase A from human normal skin dermal fibroblasts
Experimental: as §1, §2, §3
The solution of activated gelatinase A (7 μl tube, 98μl) was mixed with various concentrations of the test compound or dimethylsulfoxide (2 μl) and gelatin (100 μl) labeled with 0.05% fluorescein isothiocyanate (FITC) and incubated for 2 hours at 37° C. The reaction was terminated by the addition of 0.1 M Tris-HCI (pH9.5) containing 94.7% ethanol (750 μl). The mixture was stirred and then allowed to stand for 30 minutes at 0° C. The mixture was centrifuged for 30 minutes at 900×g. The IC50 was determined by measuring the fluorescent intensity in the supernatant (Ex=495 nm, and Em=520 nm). The results are shown in Table 24 (Example number 2 and 2(3)).

Row | IC50 [1] | IC50 [2] | SMILES
1 | 230 pM | – | C[C@@H](NS(=O)(=O)c1ccc(NC(=O)c2cccs2)cc1)C(=O)NO [Example 3(2)]
2 | 610 pM | – | Cc1ccc(C(=O)Nc2ccc(S(=O)(=O)N[C@H](Cc3c[nH]c4ccccc34)C(=O)NO)cc2)cc1 [Example 2(4), N-Hydroxy-N-[N'-[[4-(p-toluoylamino)phenyl]sulfonyl]-D-tryptophyl]amide]
3 | – | 1000 pM | CCCCCc1ccc(C(=O)Nc2ccc(S(=O)(=O)N[C@H](Cc3ccccc3)C(=O)NO)cc2)cc1 [Example 2(3), N-Hydroxy-N-[N'-[[4-(4-pentylbenzoylamino)phenyl]sulfonyl]-D-phenylalanyl]amide]
4 | – | 1700 pM | Cc1ccc(C(=O)Nc2ccc(S(=O)(=O)NCC(=O)NO)cc2)cc1 [Example 2, N N-Hydroxy-N-[N'-[[4-(p-toluoylamino)phenyl]sulfonyl]glycyl]amide]
